Test results as given in US10760052B2, “Method of inhibiting tau phosphorylation” (priority 2012, dated 2020).
Where two headings read alike, the source gives them in different places.

Biological target: T1, mu opiate receptor (MOR) (Rattus norvegicus, UniProt P33535)
T1 construct: from tissue; host or cells: striatum (membrane preparation)
Format: biochemical
Conditions: for Concentration of FLNA-Binding Compound as Agonist 0.1 μM / Concentration of FLNA-Binding Compound as Agonist 1 μM / Concentration of FLNA-Binding Compound as Agonist 1 μM + BFNA: [35S]GTPγS binding to Gαo in striatal membranes; for Concentration of FLNA-Binding Compound as Agonist 0.1 μM: compound 0.1 μM; for Concentration of FLNA-Binding Compound as Agonist 1 μM: compound 1 μM; for Concentration of FLNA-Binding Compound as Agonist 1 μM + BFNA: compound 1 μM plus 1 μM β-funaltrexamine (MOR antagonist)

[1] = 0.1 μM compound, striatal membranes, Series C-2
[2] = 1 μM compound + 1 μM β-FNA (selective MOR antagonist), Series C-2
[3] = 1 μM compound, striatal membranes, Series C-2

T1 sequence (P33535 whole entry): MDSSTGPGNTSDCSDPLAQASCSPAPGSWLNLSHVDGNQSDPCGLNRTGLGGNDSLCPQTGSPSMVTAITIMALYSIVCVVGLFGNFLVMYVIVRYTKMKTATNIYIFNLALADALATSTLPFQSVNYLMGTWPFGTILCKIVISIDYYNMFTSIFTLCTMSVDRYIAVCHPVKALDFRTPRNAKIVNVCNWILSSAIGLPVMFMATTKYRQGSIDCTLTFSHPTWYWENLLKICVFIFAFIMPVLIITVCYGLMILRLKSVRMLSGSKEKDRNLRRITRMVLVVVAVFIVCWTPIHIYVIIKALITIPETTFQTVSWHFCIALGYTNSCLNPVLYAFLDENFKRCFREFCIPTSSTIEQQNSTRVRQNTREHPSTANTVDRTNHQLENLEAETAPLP

| SMILES | % DAMGO (0.1 μM) [%] | % DAMGO (1 μM) [%] | % DAMGO + BFNA [%] | [35S]GTPγS binding, FLNA-Binding Compound as Agonist at 0.1 μM [1] [%] | [35S]GTPγS binding, FLNA-Binding Compound as Agonist at 1 μM + BFNA [2] [%] | [35S]GTPγS binding, FLNA-Binding Compound as Agonist at 1 μM [3] [%] | Concentration of FLNA-Binding Compound as Agonist 0.1 μM [%] | Concentration of FLNA-Binding Compound as Agonist 1 μM [%] | Concentration of FLNA-Binding Compound as Agonist 1 μM + BFNA [%] | [35S]GTPγS binding, FLNA-Binding Compound as Agonist at 0.1 μM [%] | [35S]GTPγS binding, FLNA-Binding Compound as Agonist at 1 μM [%] | [35S]GTPγS binding, FLNA-Binding Compound as Agonist at 1 μM + BFNA [%] |
| --- | --- | --- | --- | --- | --- | --- | --- | --- | --- | --- | --- | --- |
| C=CCN1CCC2(CC1)OCCN2S(=O)(=O)c1ccc(OC)cc1 [Compound C0091M] | 118.1 | 108.5 | 367.3 | 207.9 | 80.8 | 274.4 |  |  |  |  |  |  |
| O=C(c1ccc([N+](=O)[O-])cc1)N1CCC2(CC1)OCCN2S(=O)(=O)c1ccc([N+](=O)[O-])cc1 [Compound C0033] | 85.9 | 80.6 | 235.0 |  |  |  | 134.5 | 186.4 | 76.6 |  |  |  |
| COc1ccc(C(=O)N2CCC3(CC2)OCCN3S(=O)(=O)c2ccc(OC)cc2)cc1 [Compound C0018] | 110.7 | 95.5 | 162.1 |  |  |  | 195.5 | 247.7 | 106.5 |  |  |  |
| CCCCN1CCC2(CC1)OCCN2S(=O)(=O)c1ccc(C(C)=O)cc1 [Compound C0101M] | 82.5 | 123.4 | 368.0 | 138.2 | 174.8 | 274.3 |  |  |  |  |  |  |
| COc1c2c(cc3c1C(CC(=O)c1ccc(O)c(C)c1)[N+](C)(C)CC3)OCO2 (stereo not drawn) [Compound B0002] | 100.0 | 81.1 | 156.0 |  |  |  | 165.7 | 219.0 | 101.4 |  |  |  |
| O=S(=O)(c1ccc(F)c(F)c1)N1CCC2(CC1)OCCN2S(=O)(=O)c1ccc(F)c(F)c1 [Compound C0072] | 100.3 | 117.9 | 194.5 |  |  |  | 172.7 | 259.1 | 67.1 |  |  |  |
| CC1CCC(C(C)C)C(OCC(O)Cn2cccc2)C1 (stereo not drawn) [Compound A0038] | 90.1 | 85.0 | 144.8 |  |  |  | 176.7 | 234.5 | 107.0 |  |  |  |
| CC(=O)c1ccc(S(=O)(=O)N2CC(=O)NC23CCNCC3)cc1 [Compound C0086M] | 117.5 | 104.9 | 692.3 |  |  |  |  |  |  | 206.8 | 265.3 | 152.3 |
| CC1CN(CC(O)COC2CCCCC2)CC(C)O1 (stereo not drawn) [Compound A0017] | 96.9 | 100.4 | 187.9 |  |  |  | 161.9 | 246.0 | 65.2 |  |  |  |
| COc1ccc(OC)c(CCC(=O)CC2c3c(cc4c(c3OC)OCO4)CC[N+]2(C)C)c1 (stereo not drawn) [Compound B0044] | 49.4 | 66.9 | 511.8 |  |  |  | 87.3 | 170.0 | 134.6 |  |  |  |
| O=C(c1ccc([N+](=O)[O-])cc1)N1CCC2(CC1)OCCN2S(=O)(=O)c1ccc([N+](=O)[O-])cc1 [Compound C0022] | 113.5 | 123.2 | 25.7 |  |  |  | 194.3 | 328.7 | 13.4 |  |  |  |
| CC(=O)c1ccc(S(=O)(=O)N2CC(CN(C)C)OC23CCNCC3)cc1 (stereo not drawn) [Compound C0118M] | 87.8 | 105.4 | 163.3 |  |  |  |  |  |  | 166.2 | 261.5 | 79.2 |
| CC1CN(CC(O)COc2ccccc2C(C)C)CC(C)O1 (stereo not drawn) [Compound A0029] | 98.4 | 81.2 | 84.8 |  |  |  | 173.8 | 206.5 | 22.3 |  |  |  |
| CC1CCC(C(C)C)C(OCC(O)CN2CCOCC2)C1 (stereo not drawn) [Compound A0004] | 55.2 | 55.6 | 130.9 |  |  |  | 97.4 | 144.2 | 86.0 |  |  |  |
| COc1ccc(C(=O)CC2c3c(cc4c(c3OC)OCO4)CC[N+]2(C)C)cc1 (stereo not drawn) [Compound B0024] | 93.2 | 116.7 | 58.2 |  |  |  | 155.8 | 285.9 | 20.2 |  |  |  |
| COc1c2c(cc3c1C(CC(=O)c1ccc(C#N)cc1)[N+](C)(C)CC3)OCO2 (stereo not drawn) [Compound B0001] | 77.4 | 74.9 | 43.1 |  |  |  | 128.2 | 202.3 | 28.0 |  |  |  |
| COc1ccc(CC(=O)CC2c3c(cc4c(c3OC)OCO4)CC[N+]2(C)C)c(OC)c1 (stereo not drawn) [Compound B0029] | 89.4 | 77.0 | 40.1 |  |  |  | 171.9 | 210.3 | 17.6 |  |  |  |
| CC1CCCC(OCC(O)CN2CC(C)OC(C)C2)C1 (stereo not drawn) [Compound A0021] | 79.8 | 112.4 | 34.9 |  |  |  | 133.3 | 275.3 | 12.1 |  |  |  |
| CC(=O)c1ccc(S(=O)(=O)N2CC(CN(C)C)OC23CCN(C)CC3)cc1 (stereo not drawn) [Compound C0108M] | 108.7 | 104.1 | 158.6 | 205.6 | 76.9 | 258.5 |  |  |  |  |  |  |
| O=C1CN(C2CCc3ccccc3C2)C2(CCN(S(=O)(=O)c3ccccc3)CC2)N1 (stereo not drawn) [C0136M(P5)] | 93.4 | 95.6 | 153.6 | 176.8 | 74.5 | 237.3 |  |  |  |  |  |  |
| CC(=O)c1ccc(S(=O)(=O)N2CCOC23CCN(CC2CC2)CC3)cc1 [Compound C0095M] | 107.4 | 88.8 | 489.5 | 189.1 | 107.7 | 224.6 |  |  |  |  |  |  |
| COc1c2c(cc3c1C(CC(=O)CCc1ccc(F)cc1)[N+](C)(C)CC3)OCO2 (stereo not drawn) [Compound B0018] | 70.3 | 53.5 | 69.1 |  |  |  | 118.8 | 143.0 | 45.6 |  |  |  |
| CC1CCC(C(C)C)C(OCC(O)CN2CCSC2)C1 (stereo not drawn) [Compound A0002] | 104.1 | 86.6 | 24.5 |  |  |  | 155.6 | 199.4 | 6.5 |  |  |  |
| CC1CN(CC(O)COc2ccc(Br)c(Cl)c2)CC(C)O1 (stereo not drawn) [Compound A0045] | 73.3 | 99.3 | 134.2 |  |  |  | 143.9 | 274.2 | 99.2 |  |  |  |
| CCOC(=O)CN1CCC2(CC1)OCCN2S(=O)(=O)c1ccc(C(C)=O)cc1 [Compound C0099M] | 93.8 | 88.0 | 241.5 | 157.2 | 114.7 | 195.7 |  |  |  |  |  |  |
| O=[N+]([O-])c1ccc(S(=O)(=O)N2CCC3(CC2)NCCO3)cc1 [Compound C0040] | 93.1 | 133.2 | 277.3 | 145.8 | 90.4 | 308.3 |  |  |  |  |  |  |
| CCCCN1CCC2(CC1)OCCN2S(=O)(=O)c1ccc(OC)cc1 [Compound C0102M] | 78.6 | 122.4 | 316.6 | 131.8 | 150.4 | 272.0 |  |  |  |  |  |  |
| O=S(=O)(c1ccc(Br)cc1)N1CCC2(CC1)OCCN2S(=O)(=O)c1ccc(Br)cc1 [Compound C0025] | 122.6 | 117.5 | 182.7 |  |  |  | 235.7 | 320.7 | 80.2 |  |  |  |
